Laboratory results as given in US12486246B2, “Replication protein A (RPA)-DNA interaction inhibitors” (THE TRUSTEES OF INDIANA UNIVERSITY, priority 2019, dated 2025).

Tests used:
[1] = target: T1, full length heterotrimeric human RPA (Homo sapiens, UniProt P27694); assay: Electrophoretic mobility shift assay (EMSA), binding of full length human RPA to ssDNA; conditions: for IC50: full length human RPA binding to DNA, mean ± SD of minimum triplicate experiments
T1 construct: Full length, heterotrimeric human RPA (fl-RPA) and DBD-A/B constructs were expressed and purified; made in house
Protocol: (§1) Full length, heterotrimeric human RPA (fl-RPA) and DBD-A/B constructs were expressed and purified according to previously described protocol. The DBD-A/B construct was expressed as a His6-RPA181-422 fusion protein. E. coli BL21 (DE3) cells in log growth were induced for 3 h with 0.5 mM IPTG at 37° C. The cells were lysed via sonication in buffer containing 20 mM Tris pH 7.5, 500 mM NaCl, 10 mM b-mercaptoethanol, supplemented with 25 μg/mL lysozyme, 1 μg/mL leupeptin, 1 μg/mL pepstatin and 0.5 mM PMSF. The lysate was applied to a 20 mL phosphocellulose column equilibrated in the same buffer and the flow-through material collected, brought to 5 mM Imidazole and loaded onto a 2 ml Ni-NTA column. The column was washed and proteins eluted on with a gradient from 50 mM to 500 mM imidazole. Fractions were assessed by EMSA and SDS-PAGE and DBD-A/B containing fraction were pool, dialyzed against buffer containing 50 mM HEPES pH 7.0, 500 mM NaCl and 1 mM DTT and stored at −80° C.
(§2) EMSAs were carried out using previously described procedure with the following modification. EMSA reactions (20 μL) were performed with 50 nM fl-RPA and 2.5 nM 5′ [^32P]-labeled 34-base DNA in buffer containing 20 mM HEPES (pH 7.8), 1 mM DTT, 0.001% NP-40, 50 mM NaCl. Chemical compounds were suspended in DMSO and DMSO concentration in the reaction mixture was kept constant at 2% or below 5%. RPA was incubated with inhibitor or DMSO control in reaction buffer for 30 min before the addition of DNA. Reactions were incubated for 5 min at room temperature and products separated via 6% native polyacrylamide gel electrophoresis. The bound and unbound fractions were then quantified by phosphor-imager analysis using ImageQuant software (Molecular Dynamics, CA) and IC50 values calculated by non-linear regression using SigmPlot (Sysat). For EMSA reactions with RPA DBD-A/B, 150 nM DBD-A/B was used, and electrophoresis was performed at 4° C. All other conditions were identical to those described for the full-length RPA.
Purified full length heterotrimeric human RPA protein was used to screen a series of analogs in an electrophoretic mobility shift assay (EMSA) measuring direct binding to a ss-DNA substrate. Quantification of the EMSA data and additional concentration dependent analysis to measure IC50 values of newly synthesized analogs provided potential insight into the structure-activity relationships (Table 1 and 2). […] Fluorine and trifluoromethyl substituents were included in pyridinyl compounds 28-29.

[2] = test system: sonicated salmon sperm DNA; assay: Fluorescent intercalator displacement (FID) assay, SYBR-Green; format: binding; conditions: 25 mM MOPS pH 6.5
Protocol: The analysis of compound interactions with DNA was determined by inhibition of SYBR-Green intercalation into DNA as we have previously described. Briefly, reactions were performed in 25 mM MOPS (pH 6.5) containing sonicated salmon sperm DNA (8.29 ng/μL), SYBR-Green, and the indicated concentrations of RPA inhibitors. Reactions were conducted in black 96-well plates. Doxorubicin, a known noncovalent DNA binding chemotherapeutic, was used as a positive control. Fluorescence was measured using a BioTek® Synergy™ H1 hybrid multi-mode microplate reader with an excitation wavelength of 485 nm, emission wavelength of 528 nm, and a read height of 7 mm. Data were collected using BioTek® Gen5™ reader software. Reactions were incubated a maximum of 5 min before measurements were collected.
(§3) In order to probe the potential role of DNA intercalation as a mechanism for RPA inhibition, compounds 19, 23, 26, 27, 43 and 45 were analyzed using FID assay along with doxorubicin (Dox) as a positive control. […] In addition, direct binding of 9 derivatives to the target protein was assessed using a differential scan fluorimetry (DSF) assay. This assay assesses the melting profile of a protein at increasing temperatures via fluorescent dye binding. The direct interaction of a small molecule to the target protein can either increase or decrease the melting temperature (Tm) of the target depending on the specific protein and their interactions. […] Heparin sulfate, a known RPA interacting molecule often used in the purification of the protein was used as a control. […] (data not shown). […] (FIG. 1B).

[3] = target: T2, RPA DBD-A/B construct (His6-RPA181-422 of RPA70) (Homo sapiens, UniProt P27694); assay: EMSA, binding of RPA DBD-A/B construct to DNA; conditions: mean ± SD, read-out: RPAA/B IC50
T2 construct: The DBD-A/B construct was expressed as a His6-RPA181-422 fusion protein; His6 (N); made in house; host or cells: E. coli BL21 (DE3)
Protocol: as §1, §2
These domains are compact modular domains populated with hydrophobic and basic DNA binding amino acid residues and have great potential to influence binding of the compounds to the RPA70 subunit. RPA DBD-A/B construct was purified via Ni-affinity chromatography. The activity of compounds 23-27 was evaluated on purified DBD-A/B construct using EMSA.

[4] = target: T3, RPA-AB construct (RPA70 AB domain) (Homo sapiens, UniProt P27694); assay: Differential scanning fluorimetry (DSF); format: binding
T3 construct: The DBD-A/B construct was expressed as a His6-RPA181-422 fusion protein; His6 (N); made in house; host or cells: E. coli BL21 (DE3)
Protocol: as §3
The interaction of compound 43 with RPA-AB constructs was performed by differential scanning fluorimetry using GloMelt™ Dye (Biotum). […] Reactions were run in an ABI 7500 real time PCR machine with temperature increasing from 25° C. to 99° C. at a 2% ramp (˜40 minutes) and fluorescence of the reporter was measured on the SYBR® Green setting. […] Data was uploaded to TSA-CRAFT software and Tm calculated as described by Lee et al. Heparin was employed as a positive control of binding to the AB-box of RPA.

[5] = Aqueous solubility in unbuffered water; format: physicochemical; conditions: 43, 44, 45, 46, 47 vs 9, 16, 26, 28, 29 respectively
Protocol: Aqueous solubility was determined by suspending compound in un-buffered water with stirring. Insoluble material was removed by sedimentation or filtration and soluble compound quantified by absorbance spectroscopy and LC/MS. pH dependence was determined by suspending compound in 10 mM citrate buffer at pH 4.0 or 10 mM phosphate […] as described above in the description.
The morpholine ring is commonly introduced into solvent exposed regions as a privileged solubilizing group to improve solubility or pharmacokinetic properties including metabolic stability of a prospective drug scaffold which is exemplified by many FDA approved drugs. Modifications on Ring A had less of an effect than the morpholino modifications at the alkyl carboxylic acid side chain. To determine the effect of pH on solubility, we prepared solution at 1 mM in citrate buffer at pH 4, phosphate buffer at pH 7 and carbonate buffer at pH 9.5.

T1 sequence (P27694 whole entry): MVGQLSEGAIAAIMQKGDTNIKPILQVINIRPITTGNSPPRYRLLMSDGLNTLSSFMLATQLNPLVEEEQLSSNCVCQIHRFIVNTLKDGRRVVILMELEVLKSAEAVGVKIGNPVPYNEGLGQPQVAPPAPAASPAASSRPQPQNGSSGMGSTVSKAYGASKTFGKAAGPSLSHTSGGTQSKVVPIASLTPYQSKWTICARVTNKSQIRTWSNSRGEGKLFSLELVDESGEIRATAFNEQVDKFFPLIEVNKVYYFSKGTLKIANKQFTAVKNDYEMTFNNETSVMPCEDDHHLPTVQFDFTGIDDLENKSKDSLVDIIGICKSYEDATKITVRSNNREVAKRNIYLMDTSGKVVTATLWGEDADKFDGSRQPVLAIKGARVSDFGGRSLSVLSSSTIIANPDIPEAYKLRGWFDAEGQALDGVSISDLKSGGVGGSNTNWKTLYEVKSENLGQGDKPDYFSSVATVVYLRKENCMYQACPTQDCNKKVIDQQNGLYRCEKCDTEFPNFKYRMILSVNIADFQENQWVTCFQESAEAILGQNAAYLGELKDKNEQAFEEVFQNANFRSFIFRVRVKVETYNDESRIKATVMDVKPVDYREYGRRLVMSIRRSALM
T1 sequence (P15927 whole entry partner): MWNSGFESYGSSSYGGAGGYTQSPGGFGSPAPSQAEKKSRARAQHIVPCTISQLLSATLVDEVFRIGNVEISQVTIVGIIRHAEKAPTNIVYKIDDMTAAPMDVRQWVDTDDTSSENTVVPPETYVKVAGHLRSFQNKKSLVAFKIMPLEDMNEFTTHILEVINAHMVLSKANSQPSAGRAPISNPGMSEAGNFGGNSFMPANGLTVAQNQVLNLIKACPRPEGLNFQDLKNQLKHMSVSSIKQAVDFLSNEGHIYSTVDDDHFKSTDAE
T1 sequence (P35244 whole entry partner): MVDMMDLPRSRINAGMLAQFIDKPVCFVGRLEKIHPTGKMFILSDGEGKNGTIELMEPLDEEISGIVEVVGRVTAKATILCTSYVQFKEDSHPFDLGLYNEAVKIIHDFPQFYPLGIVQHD
T2 sequence (P27694 181-422): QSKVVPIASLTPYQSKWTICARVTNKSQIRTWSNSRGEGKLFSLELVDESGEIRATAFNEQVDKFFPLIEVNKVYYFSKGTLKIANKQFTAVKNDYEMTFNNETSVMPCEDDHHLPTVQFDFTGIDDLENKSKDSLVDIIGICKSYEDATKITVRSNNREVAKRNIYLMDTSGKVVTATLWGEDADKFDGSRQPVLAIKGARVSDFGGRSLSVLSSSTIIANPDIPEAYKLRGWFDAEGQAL
T3 sequence (P27694 181-422): as above

CCOc1ccc2cc(C3CC(c4ccc(-c5ccco5)cc4)=NN3C(=O)CCCC(=O)O)c(Cl)nc2c1 (centres unmarked) [Compound 23, 5-(5-(2-Chloro-7-ethoxyquinolin-3-yl)-3-(4-(furan-2-yl)phenyl)-4,5-dihydro-1H-pyrazol-1-yl)-5-oxopentanoic acid]
fold increase in activity compared to compound 22 ([1]; full length RPA): ~3.2 fold
IC50 [1]: 2100 ± 480 nM
DNA binding activity (displacement of SYBR-Green intercalator) [2]: No significant DNA binding activity
IC50 [3]: 3.3 ± 0.07 µM

CCOc1ccc2cc(C3CC(c4ccc(-c5ccc(N6CCOCC6)cc5)cc4)=NN3C(=O)CCCC(=O)O)c(Cl)nc2c1 (centres unmarked) [Compound 25, 5-(5-(2-Chloro-7-ethoxyquinolin-3-yl)-3-(4′-morpholino-[1,1′-biphenyl]-4-yl)-4,5-dihydro-1H-pyrazol-1-yl)-5-oxopentanoic acid]
IC50 [1]: 3140 ± 230 nM
IC50 [3]: 16.4 ± 2.09 µM

heparin [reference compound]
decrease in Tm [4]: 1.2 °C

CCOc1ccc2cc(C3CC(c4ccc(-c5cnoc5)cc4)=NN3C(=O)CCCC(=O)O)c(Cl)nc2c1 (centres unmarked) [Compound 24, 5-(5-(2-Chloro-7-ethoxyquinolin-3-yl)-3-(4-(isoxazol-4-yl)phenyl)-4,5-dihydro-1H-pyrazol-1-yl)-5-oxopentanoic acid]
IC50 [1]: 1710 ± 280 nM
IC50 [3]: 4.03 ± 0.28 µM

CCOc1ccc2cc(C3CC(c4ccc(Br)cc4)=NN3C(=O)CCCC(=O)NCCCN3CCOCC3)c(Cl)nc2c1 (centres unmarked) [Compound 44, 5-(3-(4-Bromophenyl)-5-(2-chloro-7-ethoxyquinolin-3-yl)-4,5-dihydro-1H-pyrazol-1-yl)-N-(3-morpholinopropyl)-5-oxopentanamide]
aqueous solubility compared to carboxylic acid counterpart (in words) [5]: increased solubility
IC50 [1]: 10000 ± 1460 nM

CCOc1ccc2cc(C3CC(c4ccc(-c5ccc(Cl)nc5)cc4)=NN3C(=O)CCCC(=O)NCCCN3CCOCC3)c(Cl)nc2c1 (centres unmarked) [Compound 45, 5-(5-(2-Chloro-7-ethoxyquinolin-3-yl)-3-(4-(6-chloropyridin-3-yl)phenyl)-4,5-dihydro-1H-pyrazol-1-yl)-N-(3-morpholinopropyl)-5-oxopentanamide]
aqueous solubility compared to carboxylic acid counterpart (in words) [5]: increased solubility
IC50 [1]: 4060 ± 560 nM
DNA binding activity (displacement of SYBR-Green intercalator) [2]: No significant DNA binding activity

CCOc1ccc2cc(C3CC(c4ccc(-c5ccc(Br)nc5)cc4)=NN3C(=O)CCCC(=O)O)c(Cl)nc2c1 (centres unmarked) [Compound 27, 5-(3-(4-(6-Bromopyridin-3-yl)phenyl)-5-(2-chloro-7-ethoxyquinolin-3-yl)-4,5-dihydro-1H-pyrazol-1-yl)-5-oxopentanoic acid]
IC50 [1]: 1010 ± 600 nM
DNA binding activity (displacement of SYBR-Green intercalator) [2]: No significant DNA binding activity
IC50 [3]: 3.32 ± 0.016 µM
